Experimental data taken from US20260109725A1, “MACROLIDE SENOLYTIC COMPOUNDS” (LUNELLA BIOTECH, INC., priority 2022, published 2026).
In brackets after ≈: the same amount, converted by molar mass.

Assays:
[1] = system: control MRC-5 cells (normal lung fibroblasts); test: SRB assay, control (normal) MRC-5 cells; assay type: cell-based, human
Experimental: (§1) For example, in one assay bromodeoxyuridine (5-bromo-2′-deoxyuridine), also known as BrdU, was used to induce senescence in a cell population. BrdU is an analog of the nucleoside thymidine commonly used to identify proliferating cells. BrdU induces controlled DNA damage, and drives cells towards senescence with high efficiency. In the BrdU assay, normal fibroblasts are subjected to prolonged culture (8-days) in the presence of BrdU at 100 μM to induce controlled DNA-damage and senescence. […] Senolytic activity was assessed using the sulforhodamine B assay, also known in the art as the SRB assay. This assay measures the amount of protein remaining attached to the tissue-culture dishes, and is a surrogate marker for cell viability.
(§2) FIG. 1 compares SRB assay results for different concentrations of Azithromycin (100 µM and 50 μM) and Compound [I] (100 μM and 50 μM) of the present approach, on both control MRC-5 cells and MRC-5 cells treated with BrdU. […] (labelled as “Azi-Gal” in FIG. 1) for another 5 days. After that, the SRB assay was performed to determine the effects of the drug on cell viability, using normal MRC-5 cells as the control. […] However, at 50 μM Azithromycin had no effect on either the control cells or senescent cells.
(§3) BrdU Assay: Cells were plated into 24-well plates. Next day, half of the plate was treated with 100 μM of BrdU while control wells were treated with vehicle only (DMSO) and incubated for 8 days at 37° C. in a 5% CO2 humidified atmosphere. After 8 days of BrdU treatment cells were treated with various test compounds or drugs (e.g., azithromycin, roxithromycin, telithromycin, erythromycin, etc.) for another 3-5 days. BrdU or vehicle treatments were continued during the drug treatments as well.
(§4) Sulphorhodamine B assay: After the incubation of the plates cell viability was measured by Sulphorhodamine B assay (SRB). The assay is based on the measurement of cellular protein contents. Cells were fixed with 10% Trichloroacetic acid (TCA) for 1 hour at […], and were dried overnight at room temperature. Then, plates were incubated with SRB for 30 min, washed twice with 1% acetic acid and air dried for at least 1 h. Finally, the protein-bound dye was dissolved in a 10 mM Tris, pH 8.8, solution and read using a plate reader at 540-nm.

[2] = system: Escherichia coli JW5503 DEL-tolC; test: in vitro broth microdilution assay (MIC); assay type: cell-based; conditions: JW5503DELTOLC
Experimental: (§5) This is advantageous because use of the compounds of the present approach as therapeutic agents will have less of an impact on the development of antibiotic resistance. For example, embodiments of the present approach were screened for antibiotic activity, using the in vitro broth microdilution assay. […] The assay conditions, described by the Clinical and Laboratory Standards Institute were used for preparation of the inoculum, growth medium, and end point reading. Test substance was dissolved in 100% DMSO, suspended completely by vortexing, diluted by 2-fold serial titrations in the same vehicle, for a total of 11 test concentrations. A 4 μL aliquot of each dilution was added to 196 μL of broth medium seeded with the organism suspension in wells of a 96 well plate (bacterial count: 2-8×10(5) colony forming units/mL final). The final volume was 200 μL in each well and the final DMSO concentration was 2 percent. Test concentrations were 0.1 to 100 μM. Following incubation, the test plates were visually examined and wells were scored for growth or complete growth inhibition to define the minimum inhibitory concentration. Each test substance was evaluated with replicates. Vehicle controls and an active reference agent were used as blank and positive controls. Note that MRSA represents methicillin-resistant Staphylococcus aureus, and VRE represents vancomycin resistant Enterococcus.

[3] = system: Streptococcus pneumoniae ATCC 49619; test: in vitro broth microdilution assay (MIC); assay type: cell-based; conditions: ATCC49619; Streptococcus pneumoniae ATCC 49619, QC strain
Experimental: as §5

[4] = system: Escherichia coli ATCC 25922; test: in vitro broth microdilution assay (MIC); assay type: cell-based; conditions: ATCC25922; Escherichia coli ATCC 25922, QC strain
Experimental: as §5

[5] = system: Haemophilus influenzae ATCC 49247; test: in vitro broth microdilution assay (MIC); assay type: cell-based; conditions: ATCC49247; Haemophilus influenzae ATCC 49247, QC strain
Experimental: as §5

[6] = system: Staphylococcus aureus ATCC 29213; test: in vitro broth microdilution assay (MIC); assay type: cell-based; conditions: ATCC29213; Staphylococcus aureus ATCC 29213, QC strain
Experimental: as §5

[7] = system: Pseudomonas aeruginosa ATCC 27853; test: in vitro broth microdilution assay (MIC); assay type: cell-based; conditions: ATCC27853; Pseudomonas aeruginosa ATCC 27853, QC strain
Experimental: as §5

[8] = system: Klebsiella pneumoniae ATCC 43816; test: in vitro broth microdilution assay (MIC); assay type: cell-based; conditions: ATCC43816
Experimental: as §5

[9] = system: Enterococcus faecium ATCC 700221 VanA VRE; test: in vitro broth microdilution assay (MIC); assay type: cell-based
Experimental: as §5

[10] = system: Staphylococcus aureus ATCC 33591 MRSA; test: in vitro broth microdilution assay (MIC); assay type: cell-based
Experimental: as §5

[11] = system: Enterococcus faecalis ATCC 29212; test: in vitro broth microdilution assay (MIC); assay type: cell-based; conditions: ATCC29212; Enterococcus faecalis ATCC 29212, QC strain
Experimental: as §5

[12] = system: Acinetobacter baumannii ATCC 17978; test: in vitro broth microdilution assay (MIC); assay type: cell-based; conditions: ATCC17978
Experimental: as §5

[13] = system: MRC-5 cells treated with BrdU (senescent fibroblasts); test: SRB assay, BrdU-treated (senescent) MRC-5 cells; assay type: cell-based, human
Experimental: as §1, §2, §3, §4

[14] = system: MCF-7 cells; test: mammosphere formation assay (3D anchorage independent growth); assay type: cell-based, human
Experimental: The compounds disclosed herein may also be used as therapeutic agent to selectively eradicate CSCs for treating and/or preventing tumor recurrence and/or metastasis. […] This assay measures the amount of residual protein that adheres to tissue culture dishes and is a surrogate marker of cell viability.
3D Anchorage Independent Growth Assay: This assay is also referred to as the mammosphere formation assay. A single-cell suspension was prepared using enzymatic, and manual disaggregation (25-g needle). Then, cells were plated at a density of 500 cells/cm^2 in mammosphere medium (DMEM-F12+1X B-27 Plus Supplement+20 ng/ml EGF+Pen/Strep) under non-adherent conditions, in culture dishes pre-coated with (2-hydroxyethylmethacrylate) (poly-HEMA, Sigma Aldrich Inc.), called “mammosphere plates.” Cells were grown for 5 days and maintained in a humidified incubator at 37° C. After 5 days of culture, 3D-mammospheres >50 μm were counted using an eye piece (“graticule”), and the percentage of cells plated which formed spheres was calculated and is referred to as percent mammosphere formation, and was normalized to one (1=100% MFE). 3D mammosphere formation efficiency (MFE) was analyzed in both the ATP-low and ATP-high sub-populations of cells. All 3D mammosphere experiments were performed in triplicate, at least 3 times independently.

[15] = SRB, control vs BrdU-treated MRC5

## CC[C@H]1OC(=O)[C@H](C)[C@@H](O[C@H]2C[C@@](C)(OC)[C@@H](O)[C@H](C)O2)[C@H](C)[C@@H](O[C@@H]2O[C@H](C)C[C@H](N(C)C)[C@H]2O)[C@](C)(O)C[C@@H](C)CN(C)[C@H](C)[C@@H](O)[C@]1(C)O [Azithromycin, reference compound]
[1]; 50 μM, 5 days
  effect on control cells (SRB): no effect
[1]; 100 μM, 5 days
  effect on viability of normal MRC-5 lung fibroblasts (SRB): no effect
[2]
  MIC: 1.56 µM (≈ 1.17 µg/mL)
[3]
  MIC: 0.39 µM (≈ 0.292 µg/mL)
[4]
  MIC: 6.25 µM (≈ 4.68 µg/mL)
[5]
  MIC: 3.12 µM (≈ 2.34 µg/mL)
[6]
  MIC: 1.56 µM (≈ 1.17 µg/mL)
[7]
  MIC: 100 µM (≈ 74.9 µg/mL)
[8]
  MIC: 25 µM (≈ 18.7 µg/mL)
[9]
  MIC: > 100 µM
[10]
  MIC: > 100 µM
[11]
  MIC: 6.25 µM (≈ 4.68 µg/mL)
[12]
  MIC: 6.25 µM (≈ 4.68 µg/mL)
[13]; 50 μM, 5 days after 8 days BrdU
  effect on senescent cells (SRB): no effect
[13]; 100 μM, 5 days after 8 days BrdU
  effect on senescent MRC-5 fibroblasts (SRB): selectively killed
[14]; 200 μM
  inhibition of MCF-7 cells compared to the control (mammosphere formation): about 30%
[14]; Homo sapiens, MCF7
  IC50: 118 µM

## CC[C@H]1OC(=O)[C@H](C)[C@@H](O[C@@H]2C[C@@](C)(OC)[C@@H](O)[C@H](C)O2)[C@H](C)[C@@H](O[C@@H]2O[C@H](C)C[C@H](N(C)C)[C@H]2OC(=O)CCC(=O)OCc2ccc(O[C@@H]3O[C@H](COC(C)=O)[C@H](OC(C)=O)[C@H](OC(C)=O)[C@H]3OC(C)=O)c([N+](=O)[O-])c2)[C@](C)(O)C[C@@H](C)CN(C)[C@H](C)[C@@H](O)[C@]1(C)O [Compound [III], O4-[(2S,3R,4S,6R)-4-(dimethylamino)-2-[[(2R,3S,4R,5R,8R,10R,11R,12S,13S,14R)-2-ethyl-3,4,10-trihydroxy-13-[(2S,4R,5S,6S)-5-hydroxy-4-methoxy-4,6-dimethyl-tetrahydropyran-2-yl]oxy-3,5,6,8,10,12,14-heptamethyl-15-oxo-1-oxa-6-azacyclopentadec-11-yl]oxy]-6-methyl-tetrahydropyran-3-yl] O1-[[3-nitro-4-[(2S,3R,4S,5S,6R)-3,4,5-triacetoxy-6-(acetoxymethyl)tetrahydropyran-2-yl]oxy-phenyl]methyl]butanedioate]
[13]; [15]
  potency relative to the parent compound, Azithromycin (SRB): about half
  senolytic activity compared to Azithromycin and Compound [I]: significantly less senolytic activity

## CC[C@H]1OC(=O)[C@H](C)[C@@H](O[C@@H]2C[C@@](C)(OC)[C@@H](O)[C@H](C)O2)[C@H](C)[C@@H](O[C@@H]2O[C@H](C)C[C@H](N(C)C)[C@H]2OC(=O)OCc2ccc(O[C@@H]3O[C@H](COC(C)=O)[C@H](OC(C)=O)[C@H](OC(C)=O)[C@H]3OC(C)=O)c([N+](=O)[O-])c2)[C@](C)(O)C[C@@H](C)C(=O)[C@H](C)[C@@H](O)[C@]1(C)O [Compound [VI], 2R,3S,4S,5R,6S)-3,4,5-triacetoxy-6-[4-[[(2S,3R,4S,6R)-4-(dimethylamino)-2-[[(3R,4S,5S,6R,7R,9R,11R,12R,13S,14R)-14-ethyl-7,12,13-trihydroxy-4-[(2S,4R,5S,6S)-5-hydroxy-4-methoxy-4,6-dimethyl-tetrahydropyran-2-yl]oxy-3,5,7,9,11,13-hexamethyl-2,10-dioxo-oxacyclotetradec-6-yl]oxy]-6-methyl-tetrahydropyran-3-yl]oxycarbonyloxymethyl]-2-nitro-phenoxy]tetrahydropyran-2-yl]methyl acetate]
[1]; compared to Roxithromycin and Erythromycin
  preference for normal, non-senescent control cells (SRB): preference for the normal, non-senescent control cells
[13]; BrdU-treated MRC5
  effect on the senescent cells (SRB): little effect

## CC[C@H]1OC(=O)[C@H](C)[C@@H](O[C@@H]2C[C@@](C)(OC)[C@@H](O)[C@H](C)O2)[C@H](C)[C@@H](O[C@@H]2O[C@H](C)C[C@H](N(C)C(=O)OCc3ccc(O[C@@H]4O[C@H](COC(C)=O)[C@H](OC(C)=O)[C@H](OC(C)=O)[C@H]4OC(C)=O)c([N+](=O)[O-])c3)[C@H]2O)[C@](C)(O)C[C@@H](C)CN(C)[C@H](C)[C@@H](O)[C@]1(C)O [Compound [IV], [(2R,3S,4S,5R,6S)-3,4,5-triacetoxy-6-[4-[[[(2S,3R,4S,6R)-2-[[(2R,3S,4R,5R,8R,10R,11R,12S,13S,14R)-2-ethyl-3,4,10-trihydroxy-13-[(2S,4R,5S,6S)-5-hydroxy-4-methoxy-4,6-dimethyl-tetrahydropyran-2-yl]oxy-3,5,6,8,10,12,14-heptamethyl-15-oxo-1-oxa-6-azacyclopentadec-11-yl]oxy]-3-hydroxy-6-methyl-tetrahydropyran-4-yl]-methyl-carbamoyl]oxymethyl]-2-nitro-phenoxy]tetrahydropyran-2-yl]methyl acetate]
[13]; control vs BrdU-treated MRC5
  selectivity for senescent cells over normal, non-senescent cells (SRB): no little selectivity
